Results taken from patent publication US20200323225A1, “LIPASE INHIBITORS TO PREVENT RANCIDITY IN EXPRESSED HUMAN MILK DURING STORAGE” (STC.UNM, priority 2017, published 2020).

How the values were obtained:
LPL [1] = target: T1, LPL (Homo sapiens, UniProt P06858); test: LPL activity in milk spiked with 6 pmol LPL, with increasing levels of Orlistat; type: biochemical; details: 10 μM Orlistat, monitored over 20 min (FIG. 3)
T1 sequence (P06858 28-475): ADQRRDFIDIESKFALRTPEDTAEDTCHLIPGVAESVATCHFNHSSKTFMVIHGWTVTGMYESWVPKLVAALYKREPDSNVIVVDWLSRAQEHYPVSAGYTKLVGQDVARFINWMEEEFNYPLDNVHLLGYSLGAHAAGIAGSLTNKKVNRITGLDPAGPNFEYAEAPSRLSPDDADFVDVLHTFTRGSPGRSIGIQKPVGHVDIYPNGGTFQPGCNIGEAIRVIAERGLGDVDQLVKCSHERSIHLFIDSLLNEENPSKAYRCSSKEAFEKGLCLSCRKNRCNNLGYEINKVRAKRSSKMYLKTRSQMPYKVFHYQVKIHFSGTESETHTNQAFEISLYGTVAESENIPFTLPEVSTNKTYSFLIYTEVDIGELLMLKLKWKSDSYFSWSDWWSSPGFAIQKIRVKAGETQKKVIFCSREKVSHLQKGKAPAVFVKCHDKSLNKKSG
Experimental: FIG. 3 is a graph showing measurement of LPL activity in milk spiked with 6 pmol LPL in the absence or presence of LPL inhibitor, Orlistat.
(§1) LPL activity in milk spiked with 6 pmol LPL and increasing levels of Orlistat (an LPL inhibitor) was monitored over the course of 20 min (FIG. 3). […] Raw milk samples were also treated with this level of Orlistat (10 μM) (FIG. 4).

LPL [2] = test: Lipase activity inhibition in raw milk samples after incubation with Orlistat; type: biochemical; details: raw milk samples (n=2); 10 μM Orlistat; incubated 1 h (FIG. 4)
Experimental: as §1, with “FIG. 4 is a graph sowing lipase activity inhibition after incubation with Orlistat. […] LPL activity” for “LPL activity”

reduction in LPL activity (LPL [1]): most significant reduction in LPL | decrease in lipase activity (LPL) (LPL [2]): 22%
Compound: CCCCCCCCCCC[C@@H](C[C@@H]1OC(=O)[C@H]1CCCCCC)OC(=O)[C@H](CC(C)C)NC=O [Orlistat]
